From patent US20240083890A1, “MACROCYCLIC BRANCHED 3-FLUORO-BUT-3-ENAMIDES AS INHIBITORS OF MCL-1” (JANSSEN PHARMACEUTICA NV, priority 2020, published 2024) come the findings set out here.

The target of one test is Mcl-1 (Homo sapiens (Human), UniProt Q07820). Kind of test: Terbium labeled Mcl-1 HTRF binding assay, displacement of Cy5-labeled BIM BH3 peptide. The following applies: Ki=IC50/(1+[L]/Kd), [L]=8 nM, Kd=10 nM; 25 pM Tb-Mcl-1, 8 nM Cy5 Bim peptide, 60 min; read-out: Tb-MCL1 Ki. As for the experimental part:
Terbium labeled Myeloid Cell Leukemia 1(Mcl-1) homogeneous time-resolved fluorescence (HTRF) binding assay utilizing the BIM BH3 peptide (H2N—(C/Cy5Mal) WIAQELRRIGDEFN-OH) as the binding partner for Mcl-1.
This assay evaluated inhibition of the BH3 domain: Mcl-1 interaction by measuring the displacement of Cy5-labeled BIM BH3 peptide (H2N—(C/Cy5Mal) WIAQELRRIGDEFN-OH) in the HTRF assay format.
The following assay and stock buffers were prepared for use in the assay: (a) Stock buffer: 10 mM Tris-HCl, pH=7.5+150 mM NaCl, filtered, sterilized, and stored at 4° C.; and (b) 1× assay buffer, where the following ingredients were added fresh to stock buffer: 2 mM dithiothreitol (DTT), 0.0025% Tween-20, 0.1 mg/mL bovine serum albumin (BSA). The 1× Tb-Mcl-1+Cy5 Bim peptide solution was prepared by diluting the protein stock solution using the 1× assay buffer (b) to 25 pM Tb-Mcl-1 and 8 nM Cy5 Bim peptide.
Using the Acoustic ECHO, 100 nL of 100× test compound(s) were dispensed into individual wells of a white 384-well Perkin Elmer Proxiplate, for a final compound concentration of 1× and final DMSO concentration of 1%. Inhibitor control and neutral control (NC, 100 nL of 100% DMSO) were stamped into columns 23 and 24 of assay plate. Into each well of the plate was then dispensed 10 μL of the 1× Tb-Mcl-1+Cy5 Bim peptide solution. The plate was centrifuged with a cover plate at 1000 rpm for 1 minute, then incubated for 60 minutes at room temperature with plates covered.
The TR-FRET signal was read on an BMG PHERAStar FSX MicroPlate Reader at room temperature using the HTRF optic module (HTRF: excitation: 337 nm, light source: laser, emission A: 665 nm, emission B: 620 nm, integration start: 60 μs, integration time: […]).
The BMG PHERAStar FSX MicroPlate Reader was used to measure fluorescence intensity at two emission wavelengths—665 nm and 620 nm—and report relative fluorescence units (RFU) for both emissions, as well as a ratio of the emissions (665 nm/620 nm)*10,000. The RFU values were normalized to percent inhibition as follows:
% inhibition (((NC−IC)−(compound-IC))/(NC−IC))*100
where IC (inhibitor control, low signal)=mean signal of 1× Tb-MCl-1+Cy5 Bim peptide+inhibitor control or 100% inhibition of Mel-1; NC (neutral control, high signal)=mean signal 1× Tb-MCI-1+Cy5 Bim peptide with DMSO only or 0% inhibition
An 11-point dose response curve was generated to determine IC50 values (using GenData) based on the following equation:
Y=Bottom+(Top-Bottom)/(1+10^((log IC50−X)*HillSlope))
where Y=% inhibition in the presence of X inhibitor concentration; Top=100% inhibition derived from the IC (mean signal of Mcl-1+inhibitor control); Bottom=0% inhibition derived from the NC (mean signal of Mcl-1+DMSO); Hillslope=Hill coefficient; and IC50=concentration of compound with 50% inhibition in relation to top/neutral control (NC).
In this assay [L]=8 nM and Kd=10 nM
Representative compounds of the present invention were tested according to the procedure as described above, with results as listed in the Table below (n.d. means not determined).

Test [1] concerns MOLP-8 human multiple myeloma cell line. Kind of test: Caspase-Glo 3/7 apoptosis induction assay in MOLP-8 cells. Type of test: cell-based. As to conditions: Homo sapiens, MOLP-8; caspase-3/7 activation, 2 hours incubation at 37° C.; averaged over all runs on all batches; read-out: MOLP8 AC50. An excerpt: MCL-1 is a regulator of apoptosis and is highly over-expressed in tumor cells that escape cell death. The assay evaluates the cellular potency of small-molecule compounds targeting regulators of the apoptosis pathway, primarily MCL-1, Bfl-1, Bcl-2, and other proteins of the Bcl-2 family. Protein-protein inhibitors disrupting the interaction of anti-apoptotic regulators with BH3-domain proteins initiate apoptosis.
The Caspase-Glo® 3/7 Assay is a luminescent assay that measures caspase-3 and -7 activities in purified enzyme preparations or cultures of adherent or suspension cells. The assay provides a proluminescent caspase-3/7 substrate, which contains the tetrapeptide sequence DEVD. This substrate is cleaved to release aminoluciferin, a substrate of luciferase used in the production of light. Addition of the single Caspase-Glo® 3/7 Reagent in an “add-mix-measure” format results in cell lysis, followed by caspase cleavage of the substrate and generation of a “glow-type” luminescent signal.
This assay uses the MOLP-8 human multiple myeloma cell line, which is sensitive to MCL-1 inhibition.
Cell cultures were maintained between 0.2 and 2.0×10^6 cells/mL. The cells were harvested by collection in 50 mL conical tubes. The cells were then pelleted at 500 g for 5 mins before removing supernatant and resuspension in fresh pre-warmed culture medium. The cells were counted and diluted as needed.
The assay reagent was prepared by transferring the buffer solution to the substrate vial and mixing. The solution may be stored for up to 1 week at 4° C. with negligible loss of signal.
Compounds were delivered in assay-ready plates (Proxiplate) and stored at −20° C.
Assays always include 1 reference compound plate containing reference compounds. The plates were spotted with 40 nL of compounds (0.5% DMSO final in cells; serial dilution; 30 μM highest conc. 1/3 dilution, 10 doses, duplicates). The compounds were used at room temperature and 4 μL of pre-warmed media was added to all wells except column 2 and 23. The negative control was prepared by adding 1% DMSO in media. The positive control was prepared by adding the appropriate positive control compound in final concentration of 60 μM in media. The plate was prepared by adding 4 μL negative control to column 23, 4 μL positive control to column 2, and 4 μL cell suspension to all wells in the plate. The plate with cells was then incubated at 37° C. for 2 hours. The assay signal reagent is the Caspase-Glo solution described above, and 8 μL was added to all wells. The plates were then sealed and measured after 30 minutes.
The activity of a test compound was calculated as percent change in apoptosis induction as follows: • LC=median of the Low Control values • =Central Reference in Screener • =DMSO • =0% • HC=Median of the High Control values • =Scale Reference in Screener • =30 μM of positive control • =100% apoptosis induction
% Effect (AC50)=100−((sample-LC)/(HC-LC))*100
% Control=(sample/HC)*100
% Control min=((sample-LC)/(HC-LC))*100
Table: Measured AC50 for Representative Compounds of Formula (I). Averaged values are reported over all runs on all batches of a particular compound.

Sequence of Mcl-1 (Q07820 whole entry): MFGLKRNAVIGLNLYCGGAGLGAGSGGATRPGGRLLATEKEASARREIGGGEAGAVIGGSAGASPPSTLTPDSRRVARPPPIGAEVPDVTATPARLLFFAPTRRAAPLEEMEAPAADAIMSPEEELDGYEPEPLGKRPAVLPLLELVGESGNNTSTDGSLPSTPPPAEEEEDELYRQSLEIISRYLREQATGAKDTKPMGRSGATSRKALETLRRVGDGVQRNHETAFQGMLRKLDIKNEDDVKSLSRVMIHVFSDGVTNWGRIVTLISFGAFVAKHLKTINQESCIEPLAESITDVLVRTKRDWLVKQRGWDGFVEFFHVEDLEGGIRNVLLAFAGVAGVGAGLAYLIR

The term Ki denotes a measure of affinity in units of concentration, obtained from inhibition or displacement. Broadly, the AC50 is the midpoint of the concentration-response curve, whichever way the signal moves. Regarding `C[C@@H]1[C@@H](C)C/C=C(\F)[C@H]([C@@H](O)CN2CCOCC2)N2CCC[C@H]2CN2C[C@@]3(CCCc4cc(Cl)ccc43)COc3ccc(cc32)C(=O)NS1(=O)=O` [Compound 22], the Ki at Mcl-1 came to 0.08 nM. For the same compound, the AC50 in test [1] amounted to 239 nM.
On the same counts, the results for `COCCN(CCOC)C[C@H](O)[C@H]1/C(F)=C/C[C@H](C)[C@@H](C)S(=O)(=O)NC(=O)c2ccc3c(c2)N(C[C@@H]2CCN21)C[C@@]1(CCCc2cc(Cl)ccc21)CO3` [Compound 23] are 0.023 nM and 69.6 nM.
The like results for `COCC(COC)OC[C@H](O)[C@H]1/C(F)=C/C[C@H](C)[C@@H](C)S(=O)(=O)NC(=O)c2ccc3c(c2)N(C[C@@H]2CCN21)C[C@@]1(CCCc2cc(Cl)ccc21)CO3` [Compound 24] were, in that order, 0.036 nM and 46.3 nM.
The like results for `COCCN(CC1CCOCC1)C[C@H](O)[C@H]1/C(F)=C/C[C@H](C)[C@@H](C)S(=O)(=O)NC(=O)c2ccc3c(c2)N(C[C@@H]2CCN21)C[C@@]1(CCCc2cc(Cl)ccc21)CO3` [Compound 25] were, in that order, 0.025 nM and 36.6 nM.
In the case of `COCCCN(CCOC)C[C@H](O)[C@H]1/C(F)=C/C[C@H](C)[C@@H](C)S(=O)(=O)NC(=O)c2ccc3c(c2)N(C[C@@H]2CCN21)C[C@@]1(CCCc2cc(Cl)ccc21)CO3` [Compound 26], the Ki on Mcl-1 amounted to 0.044 nM. In addition, the AC50 in test [1] came out at 123 nM.
For the compound `C[C@@H]1[C@@H](C)C/C=C(\F)[C@H]([C@@H](O)CN(C)CCC2CCOCC2)N2CC[C@H]2CN2C[C@@]3(CCCc4cc(Cl)ccc43)COc3ccc(cc32)C(=O)NS1(=O)=O` [Compound 27], the Ki on Mcl-1 was 0.053 nM. Besides, in test [1], the AC50 is 746 nM.
For the compound `C[C@@H]1[C@@H](C)C/C=C(\F)[C@H]([C@@H](O)CN(C)CC2CCOCC2)N2CC[C@H]2CN2C[C@@]3(CCCc4cc(Cl)ccc43)COc3ccc(cc32)C(=O)NS1(=O)=O` [Compound 28], the inhibitory constant (Ki) at Mcl-1 is 0.037 nM. Moreover, the AC50 in test [1] worked out at 211 nM.
Take `COCCN(C)C[C@H](O)[C@H]1/C(F)=C/C[C@H](C)[C@@H](C)S(=O)(=O)NC(=O)c2ccc3c(c2)N(C[C@@H]2CCN21)C[C@@]1(CCCc2cc(Cl)ccc21)CO3` [Compound 29]: the Ki on Mcl-1 was found to be 0.044 nM. Moreover, in test [1], the AC50 turned out to be 385 nM.
The like results for `COCCOCCN(C)C[C@H](O)[C@H]1/C(F)=C/C[C@H](C)[C@@H](C)S(=O)(=O)NC(=O)c2ccc3c(c2)N(C[C@@H]2CCN21)C[C@@]1(CCCc2cc(Cl)ccc21)CO3` [Compound 30] were, in that order, 0.036 nM and 944 nM.
On the same counts, the results for `C[C@@H]1[C@@H](C)C/C=C(\F)[C@H]([C@@H](O)CN(C)C)N2CC[C@H]2CN2C[C@@]3(CCCc4cc(Cl)ccc43)COc3ccc(cc32)C(=O)NS1(=O)=O` [Compound 31] are 0.041 nM and 1020 nM.
`CO[C@H](C)[C@H]1/C(F)=C/C[C@H](C)[C@@H](C)S(=O)(=O)NC(=O)c2ccc3c(c2)N(C[C@@H]2CCCN21)C[C@@]1(CCOc2cc(Cl)ccc21)CO3` [Compound 32]: the inhibition constant (Ki) on Mcl-1 amounted to 1.93 nM. For the same compound, the AC50 in test [1] worked out at 3710 nM.
